Laboratory results from patent publication US9561284B2, “Pharmaceutical composition containing a block copolymer bound to a boronic acid compound” (NANOCARRIER CO., LTD., priority 2011, dated 2017).

Assay: Drug efficacy test: body weight of the mice
Format: in vivo, male nude mice (Balb nu/nu)
Protocol: Human prostate cancer PC-3 cells were inoculated under the dorsal skin of male nude mice (Balb nu/nu, 5-week-old, CHARLES RIVER LABORATORIES JAPAN, INC.) at 3×10^6 cells per mouse. At the time when the tumor volume reached 90.7±4.5 mm^3 (mean±standard error (SE)) (on day 10 after the inoculation), the drug was administered into the tail vein. […] It should be noted that the dosage is the amount in terms of the drug for each of the groups. […] It should be noted that, when the dosage of the bortezomib aqueous solution was set to more than 1 mg/kg, toxicity due to the active pharmaceutical ingredient became remarkable and the amount of body weight loss reached a severe level (e.g., a loss of 20% or more).

CC(C)C[C@H](NC(=O)[C@H](Cc1ccccc1)NC(=O)c1cnccn1)B(O)O [Comparative Example 2, bortezomib]
Body weight loss (dosage of more than 1 mg/kg, toxicity became remarkable): ≥ 20% | Relative body weight 7 days after administration vs administration date (tail vein, 1 mg/kg): no significant difference in mouse body weight
